Converted amounts (≈) assume the structure as drawn. “And” between values parts separate entries of the source, which are not always exact repeats. Identical values can stand only once. Like-named read-outs stand apart in the source and are kept apart here.
What was measured:
anaerobic bacteria = assay: Agar dilution method for anaerobic bacteria, summary; assay type: cell-based
Clostridium camis = assay: Agar dilution MIC, anaerobes; assay type: cell-based; settings: single isolates, anaerobic agar dilution; for MIC: Clostridium, read-out: MIC Clostridium camis
Clostridium perfringens = assay: microbe, parasite or virus in culture; assay type: cell-based; settings: for MIC Clostridium perfringens: single isolates, anaerobic agar dilution
Clostridium difficile = assay: Agar dilution MIC, anaerobes; assay type: cell-based; settings: single isolates, anaerobic agar dilution; for MIC: Clostridioides difficile, read-out: MIC Clostridium difficile
Bacteroides fragilis = assay: Agar dilution MIC, anaerobes; assay type: cell-based; settings: single isolates, anaerobic agar dilution
[1] = system: Prevotella (Bacteroides) disiens; assay: Agar dilution MIC, anaerobes; assay type: cell-based; settings: single isolates, anaerobic agar dilution
Prevotella bivia = assay: Agar dilution MIC, anaerobes; assay type: cell-based; settings: single isolate, anaerobic agar dilution; for MIC: Prevotella bivia, read-out: MIC Prevotella bivia
Prevotella intermedia = assay: Agar dilution MIC, anaerobes; assay type: cell-based; settings: single isolates, anaerobic agar dilution; for MIC: Prevotella intermedia, read-out: MIC Prevotella intermedia
[2] = system: Prevotella melaninogenica; assay: Agar dilution MIC, anaerobes; assay type: cell-based; settings: single isolates, anaerobic agar dilution; for MIC: Prevotella melaninogenica, read-out: MIC Prevotella melaninogenica
[3] = system: Porphyromonas asaccharolytica; assay: Agar dilution MIC, anaerobes; assay type: cell-based; settings: single isolate, anaerobic agar dilution; for MIC: Porphyromonas asaccharolytica, read-out: MIC Porphyromonas asaccharolytica
Fusobacterium montiferum = assay: Agar dilution MIC, anaerobes; assay type: cell-based; settings: single isolates, anaerobic agar dilution
Fusobacterium nucleatum = assay: Agar dilution MIC, anaerobes; assay type: cell-based; settings: single isolates, anaerobic agar dilution
Porphyromonas gingivalis = assay: Agar dilution MIC, anaerobes; assay type: cell-based; settings: single isolate, anaerobic agar dilution; for MIC: Porphyromonas gingivalis, read-out: MIC Porphyromonas gingivalis
Fusobacterium varium = assay: Agar dilution MIC, anaerobes; assay type: cell-based; settings: single isolates, anaerobic agar dilution; for MIC: Fusobacterium varium, read-out: MIC Fusobacterium varium
P. acnes = assay: Agar dilution MIC, anaerobes; assay type: cell-based; settings: single isolates, anaerobic agar dilution; for MIC: Cutibacterium acnes, read-out: MIC P. acnes
[4] = system: Peptostreptococcus asaccharolyticus; assay: Agar dilution MIC, anaerobes; assay type: cell-based; settings: single isolates, anaerobic agar dilution
Fusobacterium necrogenes = assay: Agar dilution MIC, anaerobes; assay type: cell-based; settings: single isolate, anaerobic agar dilution; for MIC: Fusobacterium necrogenes, read-out: MIC Fusobacterium necrogenes
[5] = system: Mycobacterium avium intracellulare; assay: Agar dilution method, mycobacteria; assay type: cell-based; settings: for MIC50 / MIC90: Mycobacterium avium, 504 h, Middlebrook 7H10 agar, 21 days; for MIC50: read-out: MIC50; for MIC90: read-out: MIC90
[6] = system: Mycobacterium tuberculosis
[7] = system: Mycobacterium tuberculosis; assay: microbe, parasite or virus in culture; settings: 504 h
[8] = system: Peptostreptococcus micros; assay: Agar dilution MIC, anaerobes; assay type: cell-based; settings: single isolates, anaerobic agar dilution; for MIC: Parvimonas micra, read-out: MIC Peptostreptococcus micros
[9] = system: Peptostreptococcus tetradius; assay: Agar dilution MIC, anaerobes; assay type: cell-based; settings: single isolates, anaerobic agar dilution; for MIC: Anaerococcus tetradius, read-out: MIC Peptostreptococcus tetradius
[10] = system: Peptostreptococcus prevotii; assay: Agar dilution MIC, anaerobes; assay type: cell-based; settings: single isolates, anaerobic agar dilution; for MIC: Anaerococcus prevotii, read-out: MIC Peptostreptococcus prevotii
Eubacterium leutum = assay: Agar dilution MIC, anaerobes; assay type: cell-based; settings: single isolates, anaerobic agar dilution; for MIC: Eubacterium, read-out: MIC Eubacterium leutum
[11] = system: Peptostreptococcus magnum; assay: Agar dilution MIC, anaerobes; assay type: cell-based; settings: single isolates, anaerobic agar dilution
[12] = anaerobes, Wilkins Chalgren agar, 48 hour

## Teicoplanin
Anaerobic bacteria; anaerobes
  Geometric Mean: 2.04 µg/mL
  MIC Range: 0.03 to 32 µg/mL
Anaerobic bacteria; [12]
  MIC50: 2 µg/mL
  MIC90: 32 µg/mL
Clostridium camis
  MIC Clostridium camis: <=.06 μg/ml
Clostridium perfringens
  MIC Clostridium perfringens: <=.06 μg/ml
Clostridium difficile
  MIC Clostridium difficile: 0.25 µg/mL
Bacteroides fragilis
  MIC Bacteroides fragilis: >16 µg/mL
[1]
  MIC Prevotella (Bacteroides) disiens: 16 µg/mL and >16 µg/mL
Prevotella bivia
  MIC Prevotella bivia: 1 µg/mL
Prevotella intermedia
  MIC Prevotella intermedia: 0.5 µg/mL
[2]
  MIC Prevotella melaninogenica: 2 µg/mL and 4 µg/mL
[3]
  MIC Porphyromonas asaccharolytica: 0.125 µg/mL
Fusobacterium montiferum
  MIC Fusobacterium montiferum: >16 µg/mL
Fusobacterium nucleatum
  MIC Fusobacterium nucleatum: >16 µg/mL
Porphyromonas gingivalis
  MIC Porphyromonas gingivalis: <=.06 μg/ml
Fusobacterium varium
  MIC Fusobacterium varium: >16 µg/mL
P. acnes
  MIC P. acnes: 0.25 µg/mL
[4]
  MIC Peptostreptococcus asaccharolyticus: 0.125 µg/mL
Fusobacterium necrogenes
  MIC Fusobacterium necrogenes: >16 µg/mL

## NNC(=O)c1ccncc1 [Isoniazid]
[5]
  MIC50: 32 µg/mL (≈ 233 µM)
  MIC90: 64 µg/mL (≈ 467 µM)
[5]; geometric mean MIC
  G.M.: 18.149 µg/mL
[6]; geometric mean MIC
  G.M.: 3.17 µg/mL
[7]
  MIC50: 8 µg/mL (≈ 58.3 µM)
  MIC90: 64 µg/mL (≈ 467 µM)

## CO[C@H]1/C=C/O[C@@]2(C)Oc3c(C)c(O)c4c(O)c(c(/C=N/N5CCN(C)CC5)c(O)c4c3C2=O)NC(=O)/C(C)=C\C=C\[C@H](C)[C@H](O)[C@@H](C)[C@@H](O)[C@@H](C)[C@H](OC(C)=O)[C@@H]1C [Rifampicin]
[5]
  G.M.: 1.999 µg/mL
  MIC50: 1 µg/mL (≈ 1.22 µM)
  MIC90: 32 µg/mL (≈ 38.9 µM)
[6]
  G.M.: 6.35 µg/mL
[7]
  MIC50: 64 µg/mL (≈ 77.8 µM)
  MIC90: 64 µg/mL (≈ 77.8 µM)

## CC[C@H]1OC(=O)[C@H](C)[C@@H](O[C@H]2C[C@@](C)(OC)[C@@H](O)[C@H](C)O2)[C@H](C)[C@@H](O[C@@H]2O[C@H](C)C[C@H](N(C)C)[C@H]2O)[C@](C)(OC)C[C@@H](C)C(=O)[C@H](C)[C@@H](O)[C@]1(C)O [Clarithromycin]
[5]
  MIC50: 1 µg/mL (≈ 1.34 µM)
  MIC90: 4 µg/mL (≈ 5.35 µM)
[5]; geometric mean MIC
  G.M.: 1.554 µg/mL
[6]; geometric mean MIC
  G.M.: 12.69 µg/mL
[7]
  MIC50: 16 µg/mL (≈ 21.4 µM)
  MIC90: 32 µg/mL (≈ 42.8 µM)

## C[C@@H](O)[C@H]1C(=O)N2C(C(=O)O)=C(SCCN=CN)C[C@H]12 [Imipenem]
Anaerobic bacteria; 48 h
  MIC50: 0.064 µg/mL (≈ 0.214 µM)
  MIC90: 1 µg/mL (≈ 3.34 µM)
Anaerobic bacteria; anaerobes
  Geometric Mean: 0.084 µg/mL
  MIC Range: 0.008 to 4 µg/mL
Clostridium camis
  MIC: 0.06 µg/mL (≈ 0.2 µM)
Clostridium difficile
  MIC: 4 µg/mL (≈ 13.4 µM)
Prevotella bivia
  MIC: 0.03 µg/mL (≈ 0.1 µM)
Prevotella intermedia
  MIC: ≤ 0.016 µg/mL
[2]
  MIC: ≤ 0.016 µg/mL
[3]
  MIC: 0.03 µg/mL (≈ 0.1 µM)
Fusobacterium nucleatum; Fusobacterium nucleatum, read-out: MIC Fusobacterium nucleatum
  MIC: ≤ 0.016 µg/mL
Porphyromonas gingivalis
  MIC: ≤ 0.016 µg/mL
Fusobacterium varium
  MIC: 0.5 µg/mL (≈ 1.67 µM)
  MIC Fusobacterium varium: 1 µg/mL (≈ 3.34 µM)
P. acnes
  MIC: ≤ 0.016 µg/mL
[8]
  MIC: 0.03 µg/mL (≈ 0.1 µM)
[9]
  MIC: 0.03 µg/mL (≈ 0.1 µM)
[10]
  MIC: ≤ 0.016 µg/mL
Eubacterium leutum
  MIC: 0.25 µg/mL (≈ 0.835 µM)
  MIC Eubacterium leutum: 0.5 µg/mL (≈ 1.67 µM)
Fusobacterium necrogenes
  MIC: 0.25 µg/mL (≈ 0.835 µM)

## Amox + clav
Anaerobic bacteria; anaerobes
  Geometric Mean: 0.423 µg/mL
  MIC Range: 0.062 to 32 µg/mL
Anaerobic bacteria; [12]
  MIC50: 0.25 µg/mL
  MIC90: 8 µg/mL
Clostridium camis
  MIC Clostridium camis: <=.125 μg/ml
Clostridium perfringens
  MIC Clostridium perfringens: <=.125 μg/ml
Clostridium difficile
  MIC Clostridium difficile: 1 µg/mL
Prevotella bivia
  MIC Prevotella bivia: <=.125 μg/ml
Prevotella intermedia
  MIC Prevotella intermedia: <=.125 μg/ml
[2]
  MIC Prevotella melaninogenica: 2 µg/mL
[3]
  MIC Porphyromonas asaccharolytica: <=.125 μg/ml
Fusobacterium nucleatum
  MIC Fusobacterium nucleatum: <=.125 μg/ml
Porphyromonas gingivalis
  MIC Porphyromonas gingivalis: <=.125 μg/ml
Fusobacterium varium
  MIC Fusobacterium varium: 1 µg/mL
P. acnes
  MIC P. acnes: 0.25 µg/mL
[4]
  MIC Peptostreptococcus asaccharolyticus: 0.25 µg/mL
[11]; listed as Ax/clav
  MIC Peptostreptococcus magnum: 0.25 µg/mL and 0.5 µg/mL
[8]
  MIC Peptostreptococcus micros: <=.125 μg/ml
[9]
  MIC Peptostreptococcus tetradius: <=.125 μg/ml
[10]
  MIC Peptostreptococcus prevotii: <=.125 μg/ml
Eubacterium leutum
  MIC Eubacterium leutum: 1 µg/mL
Fusobacterium necrogenes
  MIC Fusobacterium necrogenes: 0.5 µg/mL

## Cc1ncc([N+](=O)[O-])n1CCO [Metronidazole]
Anaerobic bacteria; 48 h
  MIC50: 0.5 µg/mL (≈ 2.92 µM)
  MIC90: 2 µg/mL (≈ 11.7 µM)
Anaerobic bacteria; anaerobes
  Geometric Mean: 0.48 µg/mL
  MIC Range: 0.062 to 32 µg/mL
Clostridium camis
  MIC: ≤ 0.125 µg/mL
Clostridium perfringens; Clostridium perfringens, read-out: MIC Clostridium perfringens, single isolates, anaerobic agar dilution
  MIC: 1 µg/mL (≈ 5.84 µM)
Clostridium difficile
  MIC: 0.25 µg/mL (≈ 1.46 µM)
Bacteroides fragilis; Bacteroides fragilis, read-out: MIC Bacteroides fragilis
  MIC: 0.5 µg/mL (≈ 2.92 µM)
Bacteroides fragilis
  MIC Bacteroides fragilis: 1 µg/mL (≈ 5.84 µM)
[1]
  MIC Prevotella (Bacteroides) disiens: 1 µg/mL (≈ 5.84 µM)
[1]; read-out: MIC Prevotella (Bacteroides) disiens
  MIC: 0.5 µg/mL (≈ 2.92 µM)
Prevotella bivia
  MIC: 1 µg/mL (≈ 5.84 µM)
Prevotella intermedia
  MIC: 0.5 µg/mL (≈ 2.92 µM)
  MIC Prevotella intermedia: 0.25 µg/mL (≈ 1.46 µM)
[2]
  MIC: 0.25 µg/mL (≈ 1.46 µM)
  MIC Prevotella melaninogenica: 0.5 µg/mL (≈ 2.92 µM)
[3]
  MIC: ≤ 0.125 µg/mL
Fusobacterium montiferum; Fusobacterium, read-out: MIC Fusobacterium montiferum
  MIC: ≤ 0.125 µg/mL
Porphyromonas gingivalis
  MIC: ≤ 0.125 µg/mL
Fusobacterium varium
  MIC: ≤ 0.125 µg/mL
P. acnes
  MIC: > 16 µg/mL
[8]
  MIC: 0.25 µg/mL (≈ 1.46 µM)
  MIC Peptostreptococcus micros: 0.5 µg/mL (≈ 2.92 µM)
[9]
  MIC: 1 µg/mL (≈ 5.84 µM)
[10]
  MIC: 2 µg/mL (≈ 11.7 µM)
  MIC Peptostreptococcus prevotii: 1 µg/mL (≈ 5.84 µM)
Eubacterium leutum
  MIC: 0.25 µg/mL (≈ 1.46 µM)
  MIC Eubacterium leutum: 0.5 µg/mL (≈ 2.92 µM)
Fusobacterium necrogenes
  MIC: 0.25 µg/mL (≈ 1.46 µM)

## C[C@@H]1CN(c2c(F)c(N)c3c(=O)c(C(=O)O)cn(C4CC4)c3c2F)C[C@H](C)N1 [Sparfloxacin]
[5]
  MIC50: 4 µg/mL (≈ 10.2 µM)
  MIC90: 8 µg/mL (≈ 20.4 µM)
[5]; geometric mean MIC
  G.M.: 3.526 µg/mL
[6]; geometric mean MIC
  G.M.: 0.53 µg/mL
[7]
  MIC50: 1 µg/mL (≈ 2.55 µM)
  MIC90: 2 µg/mL (≈ 5.1 µM)

## CC1(C)S[C@@H]2[C@H](NC(=O)[C@H](N)c3ccc(O)cc3)C(=O)N2[C@H]1C(=O)O [Amox]
Anaerobic bacteria; anaerobes
  Geometric Mean: 1.366 µg/mL
  MIC Range: 0.062 to 256 µg/mL
Anaerobic bacteria; [12]
  MIC50: 1 µg/mL (≈ 2.74 µM)
  MIC90: 256 µg/mL (≈ 701 µM)
Clostridium difficile
  MIC Clostridium difficile: 1 µg/mL and 2 µg/mL
[1]
  MIC Prevotella (Bacteroides) disiens: >128 µg/mL
Prevotella intermedia
  MIC Prevotella intermedia: 4 µg/mL (≈ 10.9 µM)
[2]
  MIC Prevotella melaninogenica: 64 µg/mL (≈ 175 µM)
Fusobacterium varium
  MIC Fusobacterium varium: 1 µg/mL (≈ 2.74 µM)
P. acnes
  MIC P. acnes: 0.25 µg/mL (≈ 0.684 µM)
[4]
  MIC Peptostreptococcus asaccharolyticus: 0.25 µg/mL (≈ 0.684 µM)
[11]
  MIC Peptostreptococcus magnum: 0.25 µg/mL and 0.5 µg/mL
[10]
  MIC Peptostreptococcus prevotii: 0.25 µg/mL (≈ 0.684 µM)
Eubacterium leutum
  MIC Eubacterium leutum: 1 µg/mL (≈ 2.74 µM)
Fusobacterium necrogenes
  MIC Fusobacterium necrogenes: 0.5 µg/mL (≈ 1.37 µM)

From patent publication US20040254162A1, “Oxazolidinone derivatives as antimicrobials” (priority 2001, published 2004)
